According to patent US6681132B1, “Sodium magnetic reasonance imaging used in diagnosing tumors and assessing response to treatment” (The Trustees of Columbia University in the City of New York, priority 1999, dated 2004):
Entries after “also recorded” stand apart in the source; their conditions may differ.

What was measured:
[1] = system: carcinogen (MNU) induced breast tumor; experiment: Weighted and non-weighted sodium MRI of carcinogen (MNU) induced breast tumor; type: in vivo, Sprague Dawley rat; details: rat
Method: In another example, a breast cancer tumor is imaged in an animal model. This image verifies that the imaging diagnostic described herein responds to the treatment of a different animal model when using a different tissue type as the neoplastic target. The tumor was induced by injecting a Sprague Dawley rat with carcinogen MNU. When the tumor was palpable and measured in excess of 5 mm in diameter, the rat was imaged using weighting and non-weighting pulse sequences. One rat was given a 3 mg intra venous injection of taxotere and a second was given a 6 mg injection of taxotere. […] Both the images became brighter, with the most dramatic proportional change occurring in the weighted image.

LNCaP tumor = experiment: Na SQ and TQ line profiles of LNCaP tumor in vivo; details: 18 hours after i.v. injection of 1 mg in the femoral vein
Method: After preliminary studies, experiments were performed where proton, Na SQ and Na TQ images and line profiles were acquired at baseline and following bolus i.v. injection of chemotherapy. Imaging results for a LNCaP tumor in vivo, both at baseline and 18 hours after i.v. injection of 1 mg of taxotere in the femoral vein were examined.

mouse = details: in vivo; cited from earlier work
LNCaP = experiment: APO-BRDU endlabelling of DNA fragmentation, flow cytometry, LNCaP; type: cell-based, human
Method: At the end of the treatment period, cells are trypsinized, resuspended in media, resuspended in PBS, resuspended in iced cold methanol free formaldehyde (1% in PBS) for 15 min, resuspended in 70% ethanol and stored at −20° C. until all samples from a given experiment are ready to run (19, 23). Using a very powerful endlabelling technique (APO-BRDU, Phoenix Flow Systems, California) which gives a dynamic range of fluorescence intensities of up to 1000 fold comparing control cells to cells with advanced DNA fragmentation. Results have been confirmed using positive and negative controls provided by Phoenix Flow Systems, camptothecin treated PC3 cells, and a SNAP treated myocyte line.
Fixed cells are labeled following kit instructions (two washes with kit buffer, overnight endlabelling, two resuspensions in a rinse buffer, exposure to fluorescent antibody and treatment with propidium iodide and RNAase. Flow cytometry is performed on a Becton/Dickenson FACStar II. Individual fluorescence intensity values for 10,000 cells are obtained for each sample.
To specifically assay DNA fragmentation, a downstream response to apoptosis, uses of a terminal deoxynucleotidyl transferase labeling approach whereby fluorescent moieties are enzymatically attached to all DNA fragment ends. (FIG. 3a) The technique which was used, has a dynamic range of approximately ×1000 (FIG. 2). This allows for making very quantitative comparisons of DNA fragmentation on a cell to cell basis using flow cytometry, and to further examine the relative drug sensitivity profiles of the 3 cell lines.

[2] = human single loading doses; cited from earlier work
L cells = details: cited from earlier work

SMILES	response of sodium MR images to treatment ([1]; 3 mg intra venous injection)	response of sodium MR images to treatment ([1]; 6 mg intravenous injection)	change of SQ line profile (LNCaP tumor)	change of TQ line profiles (LNCaP tumor)	reported toxic mouse dose (mouse) [mg]	DNA fragmentation response (LNCaP; 24 hrs)	DNA fragmentation response (LNCaP; 44 hrs)	peak plasma level [2]	plasma level for the first 9.6 hrs [2] [nM]	plasma level for the first 25 hrs [2] [nM]	effect on total cellular monovalent cations (L cells; K+ loss exceeds Na+ gain)	effect on [Cai] (L cells; L cells)	effect on [Nai] (L cells; L cells)	effect on pHi (L cells; L cells)
CC(=O)O[C@@]12CO[C@@H]1C[C@H](O)[C@@]1(C)C(=O)[C@H](O)C3=C(C)[C@@H](OC(=O)[C@H](O)[C@@H](NC(=O)OC(C)(C)C)c4ccccc4)C[C@@](O)([C@@H](OC(=O)c4ccccc4)[C@H]21)C3(C)C [taxotere]	Only the latter showed a response	showed a response; also recorded: become brighter after the treatment	did not significantly vary	substantial increase	4.5	almost no response	significant DNA fragmentation	about 5 μMol/L	> 50	> 10				
COc1cc([C@@H]2c3cc4c(cc3[C@@H](O[C@@H]3O[C@@H]5CO[C@@H](C)O[C@H]5[C@H](O)[C@H]3O)[C@H]3COC(=O)[C@H]23)OCO4)cc(OC)c1O [VP-16, etoposide]						almost no response	significant DNA fragmentation				net reduction	elevate	elevate	lowers
